Test results taken from patent US7355069B2, “Ortho-substituted benzoic acid derivatives for the treatment of insulin resistance” (AstraZeneca AB, priority 2002, dated 2008).

These compounds were tested against T1, human PPAR alpha (Homo sapiens, UniProt Q07869) (assay: GAL4-PPAR ligand binding domain luciferase reporter transactivation assay in transiently transfected U2-OS cells). Conditions: about 24 hours exposure, concentration giving 50% of maximal activation by reference compound (ETYA).
T1 construct: expressed in transfected cells; host or cells: U2-OS (human osteogenic sarcoma), transient electroporation with pSG5-based expression vector
T1 sequence (Q07869 239-466 limits assumed): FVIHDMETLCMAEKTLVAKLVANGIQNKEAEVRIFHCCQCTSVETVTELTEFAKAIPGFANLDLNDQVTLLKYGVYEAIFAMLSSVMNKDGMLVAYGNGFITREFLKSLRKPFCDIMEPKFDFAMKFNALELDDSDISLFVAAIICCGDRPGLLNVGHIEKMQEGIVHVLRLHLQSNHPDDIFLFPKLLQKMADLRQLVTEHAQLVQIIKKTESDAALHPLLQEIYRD
Format: cell-based
Method: Compounds were dissolved in DMSO to obtain 16 mM stock solutions. Before assays, stock solutions were further diluted in DMSO and culture media.
U2-OS, (Osteogenic sarcoma, Human) was purchased from ATCC, USA. Cells were expanded and refrozen in batches from passage number six. Cells were cultured in Dulbecco's modified Eagle medium (DMEM) with 25 mM glucose, 2 mM glutamine or 4 mM L-alanyl-L-glutamine, 10% fetal calf serum, at 5% CO2. Phosphate buffered saline (PBS) without addition of calcium or magnesium was used. All cell culture reagents were from Gibco (USA) and 96-well cell culture plates were purchased from Wallach.
Standard recombinant DNA techniques were carried out as described by Ausubel (7). The Luciferase reporter vector, pGL5UAS (clone consists of five copies of the GAL4 DNA binding sequence, 5′-[…]-3′, cloned into the SacI/XhoI sites of pGL3-Promoter (Promega). The SacI/XhoI fragment carrying the UAS sites was constructed using annealed overlapping oligonucleotides.
Expression vectors used are based upon pSG5 (Stratagene). All vectors contain an EcoRI/NheI fragment encoding the DNA binding domain of GAL4 (encoding amino acid positions 1-145 of database accession number P04386) followed by an in-frame fusion to a fragment encoding the nuclear localisation sequence from T antigen of Polyoma Virus. The nuclear localisation sequence was constructed using annealed overlapping oligonucleotides creating NheI/KpnI sticky ends (5′-[…]-3′). The ligand binding domains from human and mouse PPARα and human and mouse PPARγ were PCR amplified as KpnI/BamHI fragments and cloned in frame to the GAL4 DNA binding domain and the nuclear localisation sequence. The sequence of all plasmid constructs used were confirmed by sequencing.
Frozen stocks of cells from passage number six were thawed and expanded to passage number eight before transfections. Confluent cells were trypsinised, washed and pelleted by centrifugation at 270×g for 2 minutes. The cell pellet was resuspended in cold PBS to a cell concentration of about 18×10^6 cells/ml. After addition of DNA, the cell suspension was incubated on ice for approximately 5 minutes before electroporation at 230 V, 960 μF in Biorad's Gene Pulser™ in 0.5 ml batches. A total of 50 μg DNA was added to each batch of 0.5 ml cells, including 2.5 μg expression vector, 25 μg reporter vector and 22.5 μg unspecific DNA (pBluescript, Stratagene).
After electroporation, cells were diluted to a concentration of 320'000 cells/ml in DMEM without phenol red, and approximately 25'000 cells/well were seeded in 96-well plates. In order to allow cells to recover, seeded plates were incubated at 37° C. for 3-4 hours before addition of test compounds. […]

EC50 | Structure (SMILES)
163 nM | CCCCCCCN(Cc1ccc(F)cc1F)C(=O)CCc1ccc(OCc2ccccc2C(=O)O)cc1 [Example 5, 2-[(4-{3-[(2,4-Difluorobenzyl)(heptyl)amino]-3-oxopropyl}phenoxy)methyl]benzoic acid]
168 nM | CCCN(Cc1ccc(F)cc1F)C(=O)CCc1ccc(OCc2ccccc2C(=O)O)cc1 [Example 10, 2-[(4-{3-[(2,4-difluorobenzyl)(propyl)amino]-3-oxopropyl}phenoxy)methyl]benzoic acid]
27 nM | CCN(Cc1ccc(Cl)cc1)C(=O)Cc1ccc(SCc2ccccc2C(=O)O)cc1 [Example 15, 2-{[(4-{2-[(4-Chlorobenzyl)(ethyl)amino]-2-oxoethyl}phenyl)thio]methyl}benzoic acid]
26 nM | CCN(Cc1ccc(C(F)(F)F)cc1)C(=O)Cc1ccc(SCc2ccccc2C(=O)O)cc1 [Example 11, 2-({[4-(2-{Ethyl[4-(trifluoromethyl)benzyl]amino}-2-oxoethyl)phenyl]thio}methyl)benzoic acid]
